In patent US10723741B1, “DNA polymerase IIIC inhibitors and use thereof” (Acurx Pharmaceuticals, LLC, priority 2018, dated 2020):
In brackets after ≈: the same amount, converted by molar mass. Read-outs that look alike come from different tables or passages of the source.

Experiments:
Type in all cases: cell-based
[1] = test system: Enterococcus faecium ATCC 700221 (VRE); experiment: Broth microdilution MIC, E. faecium ATCC 700221 (VRE); parameters: MIC E. faecium ATCC 700221 (VRE): unit: ug/mL; conditions: for MIC: Enterococcus faecium
Procedure, shortened: (§1)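 Two-fold dilutions from 64 to 0.0625 μg/ml final, 1% DMSO, were inoculated at ~5.0×10^5 cfu/ml in the strain's test medium and kept 20 h at 37 °C in ambient atmosphere. Colonies were grown on MHA, with S. pneumoniae on blood agar under 5% CO2.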

[2] = test system: Streptococcus pneumoniae ATCC 49619; experiment: Broth microdilution MIC, S. pneumoniae ATCC 49619; conditions: read-out: MIC S. pneumoniae ATCC 49619
Procedure, shortened: as §1

[3] = test system: Staphylococcus aureus NRS384 (MRSA); experiment: Broth microdilution MIC, S. aureus NRS384 (MRSA); parameters: MIC NRS 384 (MRSA): unit not given here; conditions: for MIC: Staphylococcus aureus
Procedure, shortened: as §1

[4] = test system: Escherichia coli ATCC 25922; experiment: Broth microdilution MIC, E. coli ATCC 25922 (MHIIB w & w/o 4 mM EDTA); conditions: for MIC: Escherichia coli, read-out: MIC E. coli ATCC 25922
Procedure, shortened: as §1

[5] = test system: Enterococcus faecalis ATCC 29212; experiment: Broth microdilution MIC, E. faecalis ATCC 29212; conditions: read-out: MIC E. faecalis ATCC 29212
Procedure, shortened: as §1

[6] = test system: Bacillus subtilis ATCC 6633; experiment: Broth microdilution MIC, B. subtilis ATCC 6633; conditions: read-out: MIC B. subtilis ATCC 6633
Procedure, shortened: as §1

[7] = test system: Staphylococcus aureus ATCC 29213 (MSSA); experiment: Broth microdilution MIC, S. aureus ATCC 29213 (MSSA); conditions: read-out: MIC S. aureus ATCC 29213 (MSSA)
Procedure, shortened: as §1

[8] = broth microdilution, 37° C., 20 hours, read-out: MIC E. faecium ATCC 700221 (VRE)
[9] = ATCC49619, broth microdilution, 37° C., 20 hours
[10] = broth microdilution, 37° C., 20 hours, read-out: MIC NRS 384 (MRSA)
[11] = ATCC25922, without EDTA, broth microdilution, 37° C., 20 hours
[12] = with 4 mM EDTA, broth microdilution, 37° C., 20 hours
[13] = ATCC29212, broth microdilution, 37° C., 20 hours
[14] = ATCC6633, broth microdilution, 37° C., 20 hours
[15] = broth microdilution, 37° C., 20 hours
[16] = S. aureus NRS 384, broth microdilution, 37° C., 20 hours, read-out: MIC NRS 384 (MRSA)
[17] = 20 h, read-out: MIC E. faecium ATCC 700221 (VRE)
[18] = 20 h, read-out: MIC NRS 384 (MRSA)
[19] = broth microdilution, MHIIB, 37° C., 20 hours, read-out: MIC against E. faecium ATCC 700221 (VRE)
[20] = broth microdilution, MHIIB, 37° C., 20 hours, read-out: MIC against S. aureus NRS 384 (MRSA)

Row | SMILES | MIC [1, 8] | MIC [2, 9] | MIC [4, 11] | MIC E. coli ATCC 25922 + 4 mM EDTA [4, 12] | MIC [5, 13] | MIC [6, 14] | MIC [7, 15] | MIC [3, 16] | further results
1 | CNC(=N)NCCn1ncc2nc(NCc3ccc(Cl)c(Cl)c3)[nH]c(=O)c21.Cl [Compound 294, 1-(2-(5-((3,4-Dichlorobenzyl)amino)-7-oxo-6,7-dihydro-1H-pyrazolo[4,3-d]pyrimidin-1-yl)ethyl)-3-methylguanidine hydrochloride] | 64 mg/L | 32 mg/L | > 64 mg/L | 64 mg/L | 64 mg/L | 16 mg/L | 32 mg/L | – | MIC [3, 10]: 32 mg/L
2 | Cl.O=c1[nH]c(NCc2ccc(Cl)c(Cl)c2)nc2cnn(CCNC3=NCCN3)c12 [Compound 295, 5-((3,4-Dichlorobenzyl)amino)-1-(2-((4,5-dihydro-1H-imidazol-2-yl)amino)ethyl)-1H-pyrazolo[4,3-d]pyrimidin-7(6H)-one hydrochloride] | 64 mg/L | 32 mg/L | > 64 mg/L | 64 mg/L | 64 mg/L | 32 mg/L | > 64 mg/L | – | MIC [3, 10]: 64 mg/L
3 | O=c1[nH]c(NCc2ccc(Cl)c(Cl)c2)nc2cnn(CCOCCOP(=O)(O)O)c12 [Compound 296, 2-(2-(5-((3,4-dichlorobenzyl)amino)-7-oxo-6,7-dihydro-1H-pyrazolo[4,3-d]pyrimidin-1-yl)ethoxy)ethyl dihydrogen phosphate] | 64 mg/L | 8 mg/L | > 64 mg/L | >64 mg/L | > 64 mg/L | 32 mg/L | > 64 mg/L | > 64 mg/L | –
4 | COP(=O)(OC)OCCOCCn1ncc2nc(NCc3ccc(Cl)c(Cl)c3)[nH]c(=O)c21 [Compound 297, 2-(2-(5-((3,4-dichlorobenzyl)amino)-7-oxo-6,7-dihydro-1H-pyrazolo[4,3-d]pyrimidin-1-yl)ethoxy)ethyl dimethyl phosphate] | – | – | – | >64 mg/L | – | – | – | – | MIC [1, 17]: 8 mg/L; MIC ([2]; ATCC49619, 20 h): 8 mg/L; MIC [3, 18]: 32 mg/L; MIC ([4]; ATCC25922, 20 h): > 64 mg/L; MIC ([5]; ATCC29212, 20 h): 16 mg/L; MIC ([6]; ATCC6633, 20 h): 8 mg/L; MIC ([7]; 20 h): 16 mg/L
5 | COP(=O)(O)OCCOCCn1ncc2nc(NCc3ccc(Cl)c(Cl)c3)[nH]c(=O)c21 [Compound 298, 2-(2-(5-((3,4-Dichlorobenzyl)amino)-7-oxo-6,7-dihydro-1H-pyrazolo[4,3-d]pyrimidin-1-yl)ethoxy)ethyl methyl hydrogen phosphate] | – | – | – | >64 mg/L | – | – | – | – | MIC [1, 17]: > 64 mg/L; MIC ([2]; ATCC49619, 20 h): > 64 mg/L; MIC [3, 18]: > 64 mg/L; MIC ([4]; ATCC25922, 20 h): > 64 mg/L; MIC ([5]; ATCC29212, 20 h): > 64 mg/L; MIC ([6]; ATCC6633, 20 h): > 64 mg/L; MIC ([7]; 20 h): > 64 mg/L
6 | N.N.O=c1[nH]c(NCc2ccc(Cl)c(Cl)c2)nc2cnn(CCOCCOCOP(=O)(O)O)c12 [Compound 299, ammonium (2-(2-(5-((3,4-dichlorobenzyl)amino)-7-oxo-6,7-dihydro-1H-pyrazolo[4,3-d]pyrimidin-1-yl)ethoxy)ethoxy)methyl phosphate] | 16 mg/L | 16 mg/L | > 64 mg/L | – | > 64 mg/L | 64 mg/L | > 64 mg/L | > 64 mg/L | MIC E. coli ATCC 25922 + 4 mM EDTA ([4]; ATCC25922, 20 h): >64 mg/L
7 | CSCOCCOCCn1ncc2nc(NCc3ccc(Cl)c(Cl)c3)[nH]c(=O)c21 [Compound 300, 5-[(3,4-dichlorophenyl)methylamino]-1-[2-[2-(methylsulfanylmethoxy)ethoxy]ethyl]-6H-pyrazolo[4,3-d]pyrimidin-7-one] | – | 4 mg/L (≈ 8.73 µM) | > 64 mg/L | >64 mg/L | 8 mg/L (≈ 17.5 µM) | 1 mg/L (≈ 2.18 µM) | 4 mg/L (≈ 8.73 µM) | – | MIC E. faecium ATCC 700221 (VRE) [1, 15]: 2/4; MIC NRS 384 (MRSA) ([3]; S. aureus NRS 384, broth microdilution, 37° C., 20 hours): 4/4
8 | O=c1[nH]c(NCc2ccc(F)c(F)c2)nc2c(F)nn(CCOCCO)c12 [Compound 301, 5-((3,4-difluorobenzyl)amino)-3-fluoro-1-(2-(2-hydroxyethoxy)ethyl)-1H-pyrazolo[4,3-d]pyrimidin-7(6H)-one] | 4 mg/L (≈ 10.4 µM) | 4 mg/L (≈ 10.4 µM) | > 64 mg/L | >64 mg/L | 8 mg/L (≈ 20.9 µM) | 8 mg/L (≈ 20.9 µM) | 8 mg/L (≈ 20.9 µM) | 4 mg/L (≈ 10.4 µM) | –
9 | O=c1[nH]c(NCc2ccc(Cl)c(Cl)c2)nc2c(F)nn(CCOCCO)c12 [Compound 302, 5-[(3,4-Dichlorophenyl)methylamino]-3-fluoro-1-[2-(2-hydroxyethoxy)ethyl]-6H-pyrazolo[4,3-d]pyrimidin-7-one] | 1 mg/L (≈ 2.4 µM) | 2 mg/L (≈ 4.8 µM) | > 64 mg/L | >64 mg/L | 2 mg/L (≈ 4.8 µM) | 0.5 mg/L (≈ 1.2 µM) | 2 mg/L (≈ 4.8 µM) | 2 mg/L (≈ 4.8 µM) | –
10 | O=c1[nH]c(NCc2ccc(Cl)c(Cl)c2)nc2c(Cl)nn(CCOCCO)c12 [Compound 303, 3-Chloro-5-[(3,4-dichlorophenyl)methylamino]-1-[2-(2-hydroxyethoxy)ethyl]-6H-pyrazolo[4,3-d]pyrimidin-7-one] | 1 mg/L (≈ 2.31 µM) | 2 mg/L (≈ 4.62 µM) | > 64 mg/L | >64 mg/L | 2 mg/L (≈ 4.62 µM) | 0.5 mg/L (≈ 1.16 µM) | 2 mg/L (≈ 4.62 µM) | 2 mg/L (≈ 4.62 µM) | –
11 | COCCn1nc(Cl)c2nc(NCc3ccc(Cl)c(Cl)c3)[nH]c(=O)c21 [Compound 304, 3-Chloro-5-((3,4-dichlorobenzyl)amino)-1-(2-methoxyethyl)-1H-pyrazolo[4,3-d]pyrimidin-7(6H)-one] | 0.5 mg/L (≈ 1.24 µM) | 2 mg/L (≈ 4.97 µM) | > 64 mg/L | >64 mg/L | 2 mg/L (≈ 4.97 µM) | 0.5 mg/L (≈ 1.24 µM) | 1 mg/L (≈ 2.48 µM) | 1 mg/L (≈ 2.48 µM) | MIC [1, 19]: ≤ 1 mg/L; MIC [3, 20]: ≤ 1 mg/L
12 | COCCn1nc(F)c2nc(NCc3ccc(Cl)c(Cl)c3)[nH]c(=O)c21 [Compound 305, 5-((3,4-Dichlorobenzyl)amino)-3-fluoro-1-(2-methoxyethyl)-1H-pyrazolo[4,3-d]pyrimidin-7(6H)-one] | 1 mg/L (≈ 2.59 µM) | 4 mg/L (≈ 10.4 µM) | > 64 mg/L | >64 mg/L | 2 mg/L (≈ 5.18 µM) | 0.5 mg/L (≈ 1.29 µM) | 1 mg/L (≈ 2.59 µM) | 1 mg/L (≈ 2.59 µM) | MIC [1, 19]: ≤ 1 mg/L; MIC [3, 20]: ≤ 1 mg/L
13 | O=c1[nH]c(NCc2ccc(Cl)c(Cl)c2)nc2c(F)nn(Cc3cocn3)c12 [Compound 306, 5-((3,4-Dichlorobenzyl)amino)-3-fluoro-1-(oxazol-4-ylmethyl)-1H-pyrazolo[4,3-d]pyrimidin-7(6H)-one] | 1 mg/L (≈ 2.44 µM) | 4 mg/L (≈ 9.77 µM) | > 64 mg/L | >64 mg/L | 2 mg/L (≈ 4.89 µM) | 0.5 mg/L (≈ 1.22 µM) | 2 mg/L (≈ 4.89 µM) | 2 mg/L (≈ 4.89 µM) | –
